Experimental data published in patent US20230380427A1 (priority 2020, published 2023).
Read-outs that look alike come from different tables or passages of the source. Marks after values point to notes of the source that are not given here.

Experiments:
Plasmopara viticola = test: Grapevine leaf disc assay (downy mildew, Peronospora); assay type: in vivo; settings: grapevine leaf discs, 5 days at 23° C.; diseased disk area versus control
Method: Exemplary tests for reduction of Peronospora symptoms were carried out on grapevine leaf discs as follows. Ten leaf discs were first inoculated with prototypes for 20 min and then treated with a spore suspension (20000 sporangia/ml) of the fungus until zoospores were released from the sporangia. Afterwards, leaf disks were placed on water agar plates and incubated for 5 days at 23° C. (16 h light/8 h darkness). Consequently, disease severity was calculated by measurement of the percentage of diseased disk area. Control treatments were included by either using water or by application of the copper-based, commercially available plant protection product Cuprozin.

F. graminearum [1] = assay type: in vivo, Fusarium graminearum; settings: wheat Capo, Lennox, Trappe, Kronjet, ear treated, FHB assessed 21 days after anthesis, versus untreated control
F. graminearum [2] = assay type: in vivo, Fusarium graminearum; settings: wheat Capo; versus control
F. graminearum [3] = assay type: in vivo, Fusarium graminearum; settings: wheat Trappe, ear treated, versus untreated half of plot

[Ca+2].[Cl-].[Cl-] [Prototype G1, Calcium chloride]
Reduction of Symptoms (Disease Severity %) (Plasmopara viticola): 50.9** %

Sodium silicium oxide [Prototype W4]
Reduction of Symptoms (Disease incidence %) (F. graminearum [1]; listed as Silicium): no influence | Reduction of Symptoms (Disease incidence %) (F. graminearum [1]; listed as W4): ns

O=C([O-])[O-].[Ca+2] [Prototype W24, Calcium carbonate from natural resources]
Reduction of Symptoms (%) Disease incidence % (F. graminearum [2]): ns | Reduction of Symptoms (%) Disease intensity % (F. graminearum [2]): no significant effect and ns | Reduction of Symptoms (%) Disease severity % (F. graminearum [2]): ns

[Ca+2].[Cl-].[Cl-] [Prototype W2, Calcium chloride]
Reduction of Symptoms (Disease incidence %) (F. graminearum [1]): 29%

O=C([O-])[O-].[Ca+2] [Prototype W25, Calcium carbonate from natural resources]
Reduction of Symptoms (Disease incidence %) (F. graminearum [3]; listed as Calcium carbonate): 13% | Reduction of Symptoms (Disease incidence %) (F. graminearum [3]; listed as W25): 13* %

[Cl-].[Cl-].[Mg+2] [Prototype W3, Magnesium chloride]
Reduction of Symptoms (Disease incidence %) (F. graminearum [1]; listed as W3): ns | Reduction of Symptoms (Disease incidence %) (F. graminearum [1]; listed as magnesium): no influence
